# Experimental data reported in article PMC7617869, “Molecular glues that inhibit deubiquitylase activity and inflammatory signaling” (Nature Structural & Molecular Biology, 2025).
# pIC50: −log10 of the molar value. Values joined by “and” are separate entries in the source; they are usually repeats but may differ in a detail not shown here. Identical values can stand only once.
# How the values were obtained:
# DrBRISCΔNΔC = DrBRISCΔNΔC IQF DUB activity assay; assay type: biochemical, zebrafish (Danio rerio)
# Protocol: (§1) IQF assays were performed in DUB reaction buffer containing 50 mM HEPES–NaOH pH 7.0, 100 mM NaCl, 0.1 mg ml^−1 BSA, 1 mM DTT and 0.03% v/v Brij-35. […] The final concentration of BRISC WT, all BRISC mutants, HsBRISCΔLoop, MmBRISC and DrBRISCΔNΔC was 1 nM. Other enzymes were tested at the following concentrations: 5 nM ARISC (FL), 10 nM CfBRISCΔNΔC, 250 nM AMSH* (ref. [43]), 500 nM USP2 and 1 μM trypsin (Sigma, 9002-07-7). For Michaelis–Menten experiments, 1 nM BRISC with 0–1 μM IQF K63-linked diubiquitin substrate was used. Michaelis–Menten analyses and Lineweaver–Burk plots were calculated using GraphPad Prism (version 9.0).
# (§2) To assess enzymatic activity, BRISC complexes were diluted to concentrations between 1 nM and 50 nM. […] Then, 20-μl enzyme reactions were carried out in 384-well black flat-bottom low-flange plates (Corning, 35373). DUB activity was measured using IQF K63-linked diubiquitin (LifeSensors, DU6303) at 50 nM. Cleaved diubiquitin was monitored by measuring fluorescence intensity (excitation, 544 nm; emission, 575 nm; dichroic mirror, 560 nm). Fluorescence intensity was measured every minute for 30 min at 30 °C. Fluorescence intensity units were plotted against time to generate a linear reaction progress curve, where the initial velocity (V0) corresponds to the gradient of the curve (typically achieved within 15 min). IC50 values were calculated using the GraphPad Prism (version 9.0) built-in dose–response equation for inhibitor concentration versus response (variable slope).
# BRISC BRCC36 R167A = BRISC BRCC36 R167A (Homo sapiens, UniProt P46736+Q15018+Q9NXR7, R167A); test: BRISC mutant IQF assay: BRCC36 R167A; assay type: biochemical
# Protocol: as §1, §2
# BRISC BRCC45 F140A = BRISC BRCC45 F140A (Homo sapiens, UniProt P46736+Q15018+Q9NXR7, F140A); test: BRISC mutant IQF assay: BRCC45 F140A; assay type: biochemical
# Protocol: as §1, §2
# BRISC BRCC36 L169R = BRISC BRCC36 L169R (Homo sapiens, UniProt P46736+Q15018+Q9NXR7, L169R); test: BRISC mutant IQF assay: BRCC36 L169R; assay type: biochemical
# Protocol: as §1, §2
# BRISC BRCC45 D248R = BRISC BRCC45 D248R (Homo sapiens, UniProt P46736+Q15018+Q9NXR7, D248R); test: BRISC mutant IQF assay: BRCC45 D248R; assay type: biochemical
# Protocol: as §1, §2
# BRISC Abraxas2 T135K = BRISC Abraxas2 T135K (Homo sapiens, UniProt P46736+Q15018+Q9NXR7, T135K); test: BRISC mutant IQF assay: Abraxas2 T135K; assay type: biochemical
# Protocol: as §1, §2
# BRISC = biological target: T1, BRISC (Homo sapiens, UniProt P46736+Q15018+Q9NXR7); test: Compound library screening and hit validation (IQF diubiquitin, 1 nM BRISC); assay type: biochemical; conditions: for BRISC, normalised activity (Ext. 1a): two replicate columns
# T1 construct: made in house; host or cells: Spodoptera frugiperda (Sf9) insect cells, MultiBac
# Protocol: Assays were performed in 384-well black flat-bottom low-flange plates (Corning, 35373) in buffer containing 50 mM HEPES–NaOH pH 7.0, 100 mM NaCl, 1 mg ml^−1 BSA, 1 mM DTT and 0.03% v/v Brij-35. Then, 10 μl of twofold concentrated enzyme stock was dispensed, followed by transfer of 200 nl of compounds (1 mM stock) using a 384-pin tool and a 15-min incubation at room temperature. Then, 10 μl of twofold concentrated substrate stock was added and the reaction was monitored by measuring fluorescence intensity (excitation, 540 nm; emission, 580 nm) after 20-min incubation at room temperature and ~50% of substrate was consumed. Orthogonal assays for verification of H20 and P12 hit compounds using USP2 (100 nM) and trypsin (125 nM) were performed in identical conditions.
# [1] = FX-171-C 0.035 μM, read-out: Normalised V0
# [2] = FX-171-C 0.35 μM, read-out: Normalised V0
# [3] = FX-171-C 3.1 μM, read-out: Normalised V0
# [4] = FX-171-C 6.25 μM, read-out: Normalised V0
# [5] = FX-171-C 12.5 μM, read-out: Normalised V0
# [6] = FX-171-C 100 μM, read-out: Normalised V0
# [7] = FX-171-C 0.0035 μM, read-out: Normalised V0
# [8] = FX-171-C 25 μM, read-out: Normalised V0
compound,measurement,setting,value
O=C(NC1C2CNCC21)c1nn(C(=O)c2c(Cl)cccc2Cl)cc1NC(=O)c1c(Cl)cccc1Cl (centres unmarked) [FX-171-C],Normalised V0,DrBRISCΔNΔC; FX-171-C 0.013 μM,0.983 and 1.045 and 1.007 and 1.076 and 0.9046 and 1
same,Normalised V0,DrBRISCΔNΔC; FX-171-C 0.02 μM,0.9073 and 0.9513 and 0.9154
same,Normalised V0,DrBRISCΔNΔC; FX-171-C 0.0399999 μM,0.972 and 1.086 and 0.9939
same,Normalised V0,DrBRISCΔNΔC; FX-171-C 0.0599997 μM,1 and 1.042 and 0.951
same,Normalised V0,DrBRISCΔNΔC; FX-171-C 0.0799994 μM,1.257 and 1.072 and 1.014
same,Normalised V0,DrBRISCΔNΔC; FX-171-C 0.119998 μM,0.9667 and 1.1184 and 0.9769
same,Normalised V0,DrBRISCΔNΔC; FX-171-C 0.199996 μM,1.0445 and 1.023 and 0.9962
same,Normalised V0,DrBRISCΔNΔC; FX-171-C 0.499975 μM,0.9714 and 1.052 and 0.9507
same,Normalised V0,DrBRISCΔNΔC; FX-171-C 0.799937 μM,1.009 and 0.9333 and 0.8977
same,Normalised V0,DrBRISCΔNΔC; FX-171-C 1.25984 μM,0.9862 and 1.093 and 0.9451
same,Normalised V0,DrBRISCΔNΔC; FX-171-C 1.9996 μM,0.9182 and 0.9951 and 0.8213
same,Normalised V0,DrBRISCΔNΔC; FX-171-C 3.159 μM,1.042 and 0.9998 and 0.8593
same,Normalised V0,DrBRISCΔNΔC; FX-171-C 5.19739 μM,0.6448 and 0.9953 and 0.847
same,Normalised V0,DrBRISCΔNΔC; FX-171-C 7.99364 μM,0.9454 and 0.9127 and 0.9517
same,Normalised V0,DrBRISCΔNΔC; FX-171-C 12.7839 μM,0.9358 and 1.024 and 0.8831
same,Normalised V0,DrBRISCΔNΔC; FX-171-C 19.96 μM,0.6505 and 0.8985 and 0.8711
same,Normalised V0,DrBRISCΔNΔC; FX-171-C 31.4999 μM,0.752 and 0.7818 and 0.7739
same,Normalised V0,DrBRISCΔNΔC; FX-171-C 50.147 μM,0.6953 and 0.6278 and 0.7138
same,Normalised V0,DrBRISCΔNΔC; FX-171-C 79.7601 μM,0.6671 and 0.5066 and 0.3963
same,Normalised V0,DrBRISCΔNΔC; FX-171-C 125.99 μM,0.4739 and 0.3651 and 0.4262
same,Normalised V0,DrBRISCΔNΔC; FX-171-C 199.922 μM,0.313 and 0.2853 and 0.3043
same,pIC50,BRISC BRCC36 R167A,5.85
same,inhibitor sensitivity vs BRISC WT,BRISC BRCC36 R167A,remained inhibitor sensitive
same,remaining activity at 0.035 µM,BRISC BRCC36 R167A; [1],98.5%
same,remaining activity at 0.35 µM,BRISC BRCC36 R167A; [2],78.4%
same,remaining activity at 3.1 µM,BRISC BRCC36 R167A; [3],25.5%
same,remaining activity at 6.25 µM,BRISC BRCC36 R167A; [4],20.8%
same,remaining activity at 12.5 µM,BRISC BRCC36 R167A; [5],15%
same,remaining activity at 100 µM,BRISC BRCC36 R167A; [6],4.9%
same,pIC50,BRISC BRCC45 F140A,5.37
same,inhibitor sensitivity vs BRISC WT,BRISC BRCC45 F140A,reduced sensitivity to inhibition
same,remaining activity at 0.0035 µM,BRISC BRCC45 F140A; [7],96%
same,remaining activity at 0.035 µM,BRISC BRCC45 F140A; [1],92.5%
same,remaining activity at 0.35 µM,BRISC BRCC45 F140A; [2],89.9%
same,remaining activity at 3.1 µM,BRISC BRCC45 F140A; [3],51.2%
same,remaining activity at 6.25 µM,BRISC BRCC45 F140A; [4],43.9%
same,remaining activity at 12.5 µM,BRISC BRCC45 F140A; [5],26.9%
same,remaining activity at 25 µM,BRISC BRCC45 F140A; [8],14.2%
same,remaining activity at 100 µM,BRISC BRCC45 F140A; [6],5.06%
same,pIC50,BRISC BRCC36 L169R,4.12
same,reduction of inhibition over wild-type complex,BRISC BRCC36 L169R,> 100 fold
same,remaining activity at 0.0035 µM,BRISC BRCC36 L169R; [7],98.8%
same,remaining activity at 0.035 µM,BRISC BRCC36 L169R; [1],96.8%
same,remaining activity at 0.35 µM,BRISC BRCC36 L169R; [2],93.7%
same,remaining activity at 3.1 µM,BRISC BRCC36 L169R; [3],89.5%
same,remaining activity at 25 µM,BRISC BRCC36 L169R; [8],88%
same,pIC50,BRISC BRCC45 D248R,< 4.00
same,inhibitor sensitivity vs BRISC WT,BRISC BRCC45 D248R,reduced sensitivity to inhibition
same,remaining activity at 0.0035 µM,BRISC BRCC45 D248R; [7],91.7%
same,remaining activity at 0.035 µM,BRISC BRCC45 D248R; [1],97.4%
same,remaining activity at 0.35 µM,BRISC BRCC45 D248R; [2],91.7%
same,pIC50,BRISC Abraxas2 T135K,5.82
same,inhibitor sensitivity vs BRISC WT,BRISC Abraxas2 T135K,moderate to little effect on inhibitor sensitivity
same,remaining activity at 0.35 µM,BRISC Abraxas2 T135K; [2],73.4%
same,remaining activity at 3.1 µM,BRISC Abraxas2 T135K; [3],20.9%
O=C(NC1CCNCC1)c1nn(C(=O)c2c(Cl)cccc2Cl)cc1NC(=O)c1c(Cl)cccc1Cl [JMS-175-2],"inhibition of BRISC, hit validation dose response",BRISC; BRISC 1 nM,selective inhibition
same,"BRISC, normalised activity (Ext. 1a)","BRISC; log [compound (μM)] 0.1938, listed as H20",0.7394 and 0.8570
same,"BRISC, normalised activity (Ext. 1a)","BRISC; log [compound (μM)] 0.4949, listed as H20",0.6725 and 0.7111
same,"BRISC, normalised activity (Ext. 1a)","BRISC; log [compound (μM)] 0.7959, listed as H20",0.4328 and 0.4373
same,"BRISC, normalised activity (Ext. 1a)","BRISC; log [compound (μM)] 1.0969, listed as H20",0.3601 and 0.3685
same,"BRISC, normalised activity (Ext. 1a)","BRISC; log [compound (μM)] 1.3979, listed as H20",0.2929 and 0.2927
same,"BRISC, normalised activity (Ext. 1a)","BRISC; log [compound (μM)] 1.6990, listed as H20",0.2472 and 0.2252
same,"BRISC, normalised activity (Ext. 1a)","BRISC; log [compound (μM)] 2.0000, listed as H20",0.2296 and 0.2103
same,"BRISC, normalised activity (Ext. 1a)","BRISC; log [compound (μM)] 2.3010, listed as H20",0.2316 and 0.1815
same,"BRISC, normalised activity (Ext. 1a)","BRISC; log [compound (μM)] -0.1072, listed as H20",0.9797 and 1.0152
same,"BRISC, normalised activity (Ext. 1a)","BRISC; log [compound (μM)] -0.4082, listed as H20",1.0306 and 1.0024
same,"BRISC, normalised activity (Ext. 1a)","BRISC; log [compound (μM)] -0.7093, listed as H20",1.0136 and 1.0571
same,"BRISC, normalised activity (Ext. 1a)","BRISC; log [compound (μM)] -1.7100, normalisation point",1.0000
same,"normalised V0, Mean",BRISC; log[compound (μM)] 0.1931,0.7989
same,"normalised V0, Mean",BRISC; log[compound (μM)] 0.4942,0.6361
same,"normalised V0, Mean",BRISC; log[compound (μM)] 0.7959,0.4437
same,"normalised V0, Mean",BRISC; log[compound (μM)] 1.0969,0.3773
same,"normalised V0, Mean",BRISC; log[compound (μM)] 1.3979,0.3064
same,"normalised V0, Mean",BRISC; log[compound (μM)] 1.6990,0.2332
same,"normalised V0, Mean",BRISC; log[compound (μM)] 2.0000,0.2301
same,"normalised V0, Mean",BRISC; log[compound (μM)] 2.3010,0.1610
same,"normalised V0, Mean",BRISC; log[compound (μM)] -0.1079,0.9141
same,"normalised V0, Mean",BRISC; log[compound (μM)] -0.4089,0.9318
same,"normalised V0, Mean",BRISC; log[compound (μM)] -0.7212,0.9518
same,"normalised V0, Mean","BRISC; log[compound (μM)] -1.7212, normalisation point",1.0000
